Patent publication US6348477B1, “Anti-herpesvirus compounds and methods for identifying, making and using same” (Boehringer Ingelheim(Canada) Ltd., priority 1995, dated 2002)

Columns and labels:
HCMV (strain AD169) [1] = experiment: Inhibition of HCMV replication, ELISA assay (Hs-68 cells, p28); assay type: cell-based, human cytomegalovirus; conditions: Human betaherpesvirus 5, AD169, Hs68; Group 1 Table 1; read-out: ELISA CMV EC50
Description: (§1) C) Inhibition of Human Cytomegalovirus (HCMV) replication
(§2) The effect of compounds on the replication of HCMV has been measured by using an ELISA-based assay (ELISA) and a plaque reduction assay (PRA).
(§3) Hs-68 cells (ATCC # CRL 1635) were seeded in 96 well microtiter plates at 10,000 cells/well in 100 μL of DMEM medium (Gibco Canada Inc.) supplemented with 10% fetal bovine serum (FBS, Gibco Canada Inc.). The plates were incubated for 3 days at 37° to allow the cells to reach 80-90% confluency prior to the assay.
The medium was removed from wells by aspiration. The cells then were infected at a multiplicity of infection (MOI) of 0.01 PFU/cell with 50 μL of HCMV (strain AD169, ATCC VR-538) in DMEM medium supplemented with 5% heat inactivated FBS (assay medium). The virus was allowed to adsorb to cells for 2 h at 37°. Following viral adsorption, the medium was removed from the wells by aspiration. The cells were washed twice with 200 μL of assay medium to remove unabsorbed virus. The cells were then incubated with or without 100 μL of appropriate concentrations of test reagent in assay medium. After 8 days of incubation at 37°, the extent of viral replication was determined by an ELISA assay which detects the late structural protein p28 of HCMV.
Eight days after infection, the medium was aspirated from the wells. Non-specific binding sites were blocked by adding 200 μL of phosphate buffered saline containing 1% (w/v) bovine serum albumin (blocking buffer) to each well and incubating the plates for 30 min at room temperature. After removal of the blocking buffer by aspiration, the cells were fixed with 100 μL of cold ethanol-acetone solution (95:5) per well. The plates were placed at −20° for 30 min. The plates were washed 4 times with phosphate buffered saline containing 0.05% (v/v) polyoxyethylene sorbitan monolaurate (Tween 20®). Thereafter, 100 μL of mAb UL99 (Advanced Biotechnologies Inc., #13-130-100) recognizing HCMV protein p28 was added to each wells and plates were incubated for 2 h at room temperature. The plates were washed four times with 200 μL of the above-noted phosphate buffered saline/Tween-20® solution. The cells were then incubated with 100 μL of sheep anti-mouse IgGγ horseradish peroxidase conjugated for 2 h at room temperature. The plates were then washed four times with 200 μL of above-noted phosphate buffered saline/Tween-20®solution. Thereafter, 100 μL of ortho phenylenediamine dihydrochloride (OPD, Gibco Canada Inc.) solution was added to each well and the plates were agitated on a microplate shaker for 30 min in the dark. Color development was monitored at 450 nm using a microplate spectrophotometer.
The SAS program was used to calculate the % inhibition of viral replication and to generate EC50 values.
The EC50 values obtained according to this assay method for certain thiazolylphenyl derivatives of this invention are listed in the following tables under the heading ELISA CMV.

HSV-1 helicase-primase = biological target: T1, HSV-1 helicase-primase (Human herpesvirus 1, UniProt P10189+P10236); experiment: HSV-1 DNA-dependent ATPase assay (inhibition of HSV-1 helicase-primase); assay type: biochemical; conditions: Group 1 Table 1
T1 construct: made in house; host or cells: Sf21 insect cells triply infected with recombinant baculoviruses
Excerpt: A) HSV-1 DNA-Dependent ATP Assay (an in Vitro Assay Based on the Inhibition of HSV-1 Helicase-primase).
a) Preparation of enzyme: HSV-1 helicase-primase holoenzyme was produced in triply infected Sf21 cells using recombinant baculoviruses expressing the UL5, UL8 and UL52 helicase-primase subunits, as described by S. Dracheva et al., J. Biol. Chem. 1995, 270, 14148. The crude enzyme was purified by ammonium sulfate precipitation, Source 15Q® chromatography and Sephacryl® S-300 HR gel filtration (both purification systems can be obtained from Pharmacia Biotech Inc., Montreal, Quebec, Canada), see S. Dracheva et al., supra.
b) Assay: The DNA-dependent ATPase assay, described by J. J. Crute et al., Nucleic Acids Res. 1988, 16, 6585, was modified and used to evaluate the capability of the compounds of Group 1-formula 1 to inhibit HSV-1 helicase-primase activity. The reaction mixtures (80 μL each) contained 40 mM 4-(2-hydroxyethyl)-1-piperazineethanesulfonic acid (HEPES, pH 7.5), 10% (v/v) glycerol, 5.5 mM MgCl2, 1 mM DL-dithiothreitol (DTT), 50 μg/mL acetylated bovine serum albumin, 3.3% (v/v) DMSO, 4 mM ATP, 25 μM single-stranded M13 DNA hybridized to double-tailed 68-mer oligonucleotide and 3 μg/mL HSV-1 helicase-primase. After incubation for 20 min at 34°, formation of inorganic phosphate from hydrolysis of ATP was monitored spectrophotometrically at 650 nm using acidic ammonium molybdate/malachite green reagent, P. A. Lanzetta et al., Anal. Biochem. 1979, 100, 95. DNA-dependent ATPase activity was calculated from the net absorbance change in the presence and absence of inhibition.

HCMV (strain AD169) [2] = experiment: Inhibition of HCMV replication, plaque reduction assay (PRA, Hs-68 cells); assay type: cell-based, human cytomegalovirus; conditions: Group 1 Table 1, read-out: PRA CMV EC50
Description: as §1, §2
as §3, with “( ATCC” for “(ATCC”, “12-well” for “96 well microtiter”, “83,000” for “10,000”, “1 mL” for “100 μL”
The medium was removed from the cells by aspiration. The cells were then infected with approximately 50 PFU of HCMV (strain AD169, ATCC VR-538) in DMEM medium supplemented with 5% inactivated FBS (assay medium). The virus was allowed to adsorb to cells for 2 h at 37°. Following viral adsorption, the medium was removed from the wells by aspiration. The cells were then incubated with or without 1 mL of appropriate concentrations of test reagent in assay medium. After 4 days of incubation at 37°, the medium was exchanged with fresh medium containing test compound and 4 days later the cells were fixed with 1% aqueous formaldehyde and stained with a 2% crystal violet solution in 20% ethanol in water. Microscopic plaques were counted using a stereomicroscope. Drug effects were calculated as a percent reduction in the number of plaques in the presence of each drug concentration compared to the number observed in the absence of drug. Ganciclovir was used as a positive control in all experiments.
The EC50 values obtained according to this assay for certain thiazolyl derivatives of this invention are listed in the following tables under the heading PRA CMV.

[3] = Human betaherpesvirus 5, AD169, Hs68

T1 sequence (P10189 whole entry): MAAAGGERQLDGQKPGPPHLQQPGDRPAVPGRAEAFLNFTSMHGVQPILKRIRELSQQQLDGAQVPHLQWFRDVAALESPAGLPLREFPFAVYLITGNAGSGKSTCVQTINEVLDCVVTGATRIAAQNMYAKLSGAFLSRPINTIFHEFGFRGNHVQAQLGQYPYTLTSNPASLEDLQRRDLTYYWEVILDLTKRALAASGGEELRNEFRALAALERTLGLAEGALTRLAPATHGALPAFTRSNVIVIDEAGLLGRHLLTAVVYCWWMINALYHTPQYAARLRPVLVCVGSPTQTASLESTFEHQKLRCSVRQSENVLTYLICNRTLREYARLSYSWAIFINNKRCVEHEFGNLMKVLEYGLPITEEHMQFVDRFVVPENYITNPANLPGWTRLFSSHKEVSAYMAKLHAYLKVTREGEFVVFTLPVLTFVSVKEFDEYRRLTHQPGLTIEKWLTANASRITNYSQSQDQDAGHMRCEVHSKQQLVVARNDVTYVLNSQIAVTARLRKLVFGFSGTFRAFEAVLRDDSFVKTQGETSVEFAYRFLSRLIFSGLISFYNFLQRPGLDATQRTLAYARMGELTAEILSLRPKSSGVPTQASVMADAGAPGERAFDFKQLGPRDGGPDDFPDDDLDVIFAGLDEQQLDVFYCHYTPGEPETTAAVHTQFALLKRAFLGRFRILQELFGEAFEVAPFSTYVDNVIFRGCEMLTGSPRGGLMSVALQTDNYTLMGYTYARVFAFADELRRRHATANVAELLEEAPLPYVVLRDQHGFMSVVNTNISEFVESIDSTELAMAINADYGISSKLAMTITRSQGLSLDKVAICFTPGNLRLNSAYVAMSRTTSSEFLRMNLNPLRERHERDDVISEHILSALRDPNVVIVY
T1 sequence (P10192 whole entry, further chain): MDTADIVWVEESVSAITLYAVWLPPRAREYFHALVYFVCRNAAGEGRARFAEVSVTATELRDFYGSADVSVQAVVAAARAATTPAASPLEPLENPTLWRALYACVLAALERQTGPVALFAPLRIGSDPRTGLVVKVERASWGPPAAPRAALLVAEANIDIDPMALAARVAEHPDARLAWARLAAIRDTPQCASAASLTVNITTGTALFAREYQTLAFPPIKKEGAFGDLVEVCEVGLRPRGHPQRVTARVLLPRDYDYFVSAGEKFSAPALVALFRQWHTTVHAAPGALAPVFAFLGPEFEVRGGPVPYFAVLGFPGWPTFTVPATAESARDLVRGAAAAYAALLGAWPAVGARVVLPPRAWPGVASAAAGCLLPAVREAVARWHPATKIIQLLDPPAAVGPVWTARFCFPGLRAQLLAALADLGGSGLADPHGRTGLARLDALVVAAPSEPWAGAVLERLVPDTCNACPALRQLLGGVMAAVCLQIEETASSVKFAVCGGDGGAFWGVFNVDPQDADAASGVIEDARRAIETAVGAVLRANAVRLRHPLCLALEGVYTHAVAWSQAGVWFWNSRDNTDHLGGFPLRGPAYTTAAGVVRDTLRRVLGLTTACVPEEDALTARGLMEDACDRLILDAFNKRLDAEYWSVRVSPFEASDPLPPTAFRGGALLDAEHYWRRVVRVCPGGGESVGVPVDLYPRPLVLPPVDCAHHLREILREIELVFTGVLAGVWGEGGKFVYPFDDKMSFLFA
T1 sequence (P10236 whole entry): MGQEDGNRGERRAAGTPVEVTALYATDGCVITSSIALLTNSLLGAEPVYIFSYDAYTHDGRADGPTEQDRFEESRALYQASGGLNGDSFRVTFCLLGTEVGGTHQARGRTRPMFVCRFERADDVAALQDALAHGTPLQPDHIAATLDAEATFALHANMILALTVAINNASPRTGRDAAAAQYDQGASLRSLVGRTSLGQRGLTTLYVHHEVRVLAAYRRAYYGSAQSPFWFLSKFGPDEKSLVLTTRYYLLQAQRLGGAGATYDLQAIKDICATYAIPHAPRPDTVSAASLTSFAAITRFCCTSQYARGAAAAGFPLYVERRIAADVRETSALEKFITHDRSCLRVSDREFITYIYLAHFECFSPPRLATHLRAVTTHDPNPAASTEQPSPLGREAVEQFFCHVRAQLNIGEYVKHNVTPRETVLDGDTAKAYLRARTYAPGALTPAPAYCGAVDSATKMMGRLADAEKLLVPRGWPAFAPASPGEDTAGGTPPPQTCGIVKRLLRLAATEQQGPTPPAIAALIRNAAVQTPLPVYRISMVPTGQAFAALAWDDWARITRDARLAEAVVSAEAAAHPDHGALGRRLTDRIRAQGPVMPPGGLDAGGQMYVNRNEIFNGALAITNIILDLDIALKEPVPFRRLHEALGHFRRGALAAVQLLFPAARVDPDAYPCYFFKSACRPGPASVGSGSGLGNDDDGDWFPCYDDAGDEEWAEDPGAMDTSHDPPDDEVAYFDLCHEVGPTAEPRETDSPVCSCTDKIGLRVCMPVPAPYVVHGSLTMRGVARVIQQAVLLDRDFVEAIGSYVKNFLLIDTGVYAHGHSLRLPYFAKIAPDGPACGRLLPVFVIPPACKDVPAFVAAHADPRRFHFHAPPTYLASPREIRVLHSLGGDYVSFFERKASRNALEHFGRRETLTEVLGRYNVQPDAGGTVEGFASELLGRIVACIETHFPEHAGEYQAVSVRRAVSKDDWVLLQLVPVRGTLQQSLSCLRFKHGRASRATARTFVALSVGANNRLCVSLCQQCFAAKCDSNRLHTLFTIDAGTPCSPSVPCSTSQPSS

| SMILES | EC50 (HCMV (strain AD169) [1]) [µM] | IC50 (HSV-1 helicase-primase) [µM] | EC50 (HCMV (strain AD169) [2]; [3]) [µM] | further results |
| --- | --- | --- | --- | --- |
| CN(C(=O)N(CC(=O)Nc1ccc(-c2csc(N)n2)cc1)Cc1ccccc1)C(C)(C)C [Example 94] | > 8 | 0.026 | > 24 |  |
| CN1CCC(C(=O)N(CC(=O)Nc2ccc(-c3csc(N)n3)cc2)CC2CCCCC2)CC1 [Example 138] | 31.6 | > 50 |  |  |
| C[C@@H](c1ccccc1)N(CC(=O)Nc1ccc(-c2csc(N)n2)cc1)C(=O)NC(C)(C)C [Example 105] | 11 | 0.7 |  |  |
| Nc1nc(-c2ccc(NC(=O)CNCc3ccccc3)cc2)cs1 [Example 2, N-{4-(2-Amino-4-thiazolyl)phenyl}-2-{(phenylmethyl)-amino}acetamide] |  |  |  | melting point: 162 to 163 °C |
| CC(C)(C)OC(=O)N1CCC[C@H]1C(=O)Nc1ccc(-c2csc(N)n2)cc1 [Example 13, tert-Butyl 2(S)-{{{4-(2-Amino-4-thiazolyl)phenyl}-amino}carbonyl}-1-pyrrolidinecarboxylate] |  |  |  | melting point: 238 to 239 °C |
| Nc1nc(-c2ccc(NC(=O)CN(Cc3ccccc3)C(=O)N3CCOCC3)cc2)cs1 [Example 95] | 57 | 0.14 | 90 |  |
| C[C@@H](c1ccccc1)N(CC(=O)Nc1ccc(-c2csc(N)n2)cc1)C(=O)Cc1ccccn1 [Example 135] |  | 0.78 | 38 |  |
| CC(c1ccccc1)N(CC(=O)Nc1ccc(-c2csc(N)n2)cc1)C(=O)Cc1ccccn1 (stereo not shown) [Example 136] |  | 4.2 |  | EC50 (HCMV (strain AD169) [2]): 31 µM |
| Nc1nc(-c2ccc(NC(=O)CN(Cc3ccc(Cl)cc3)C(=O)CC3CCCCC3)cc2)cs1 [Example 69] |  | 0.43 | 8 |  |
| Nc1nc(-c2ccc(NC(=O)[C@H]3CCC(=O)N3Cc3ccccc3)cc2)cs1 [Example 12, N-{4-(2-Amino-4-thiazolyl)phenyl}-5-oxo-1-(phenylmethyl)-2(R)-pyrrolidinecarboxamide] |  |  |  | melting point: 245 to 246 °C |
| Nc1nc(-c2ccc(NC(=O)CN(CC3CCCCC3)C(=O)C3CCNCC3)cc2)cs1 [Example 62] |  |  |  | inhibition of HSV-1 helicase-primase (HSV-1 helicase-primase; at 50 μM): 29% inhi- bition at 50 μM |
| Nc1nc(-c2ccc(NC(=O)CCNCc3ccccc3)cc2)cs1 [Example 8, N-{4-(2-Amino-4-thiazolyl)phenyl}-3-{(phenylmethyl)-amino}propanamide] |  |  |  | melting point: 131 to 133 °C |
| CN(C(=O)CNCc1ccccc1)c1ccc(-c2csc(N)n2)cc1 [Example 10, N-{4-(2-Amino-4-thiazolyl)phenyl}-N-methyl-2-{(phenylmethyl)amino)acetamide] |  |  |  | melting point: 160 to 162 °C |
| CC(C)COC(=O)N(CC(=O)Nc1ccc(-c2csc(N)n2)cc1)Cc1ccccc1 [Example 86] | 3.8 | 0.17 | 24 |  |
| CC(C)CN(CC(=O)Nc1ccc(-c2csc(N)n2)cc1)C(=O)OC(C)(C)C [Example 112] |  | 1.8 |  |  |
| CC(C)(C)OC(=O)N1CCC(C(=O)N(CC(=O)Nc2ccc(-c3csc(N)n3)cc2)CC2CCCCC2)CC1 [Example 61] |  | 4.4 |  |  |
| Cc1cc(C)nc(SCC(=O)N(CC(=O)Nc2ccc(-c3csc(N)n3)cc2)Cc2ccccc2)n1 [Example 122] |  |  |  | EC50 (HCMV (strain AD169) [2]): 3.3 µM |

| SMILES | EC50 (HCMV (strain AD169) [1]) [µM] | IC50 (HSV-1 helicase-primase) [µM] | EC50 (HCMV (strain AD169) [2]; [3]) [µM] | further results |
| --- | --- | --- | --- | --- |
| Nc1nc(-c2ccc(NC(=O)CN(Cc3ccc(Cl)cc3)C(=O)c3ccncc3)cc2)cs1 [Example 55] | 11.9 | 0.57 |  |  |
| CC(C)(C)NC(=O)N(CC(=O)Nc1ccc(-c2csc(N)n2)cc1)Cc1ccccc1 [Example 92] | 0.9 | 0.076 | 65 |  |
| Nc1nc(-c2ccc(NC(=O)CN(Cc3ccccc3)S(=O)(=O)N3CCOCC3)cc2)cs1 [Example 96] | 0.35 | 0.29 | 12 |  |
| CC(C)CN(CC(=O)Nc1ccc(-c2csc(N)n2)cc1)C(=O)C1CCCCC1 [Example 81] | 14 | 0.48 |  |  |
| CC(c1ccccc1)N(CC(=O)Nc1ccc(-c2csc(N)n2)cc1)C(=O)c1cccnc1 (stereo not shown) [Example 134] |  | 0.26 |  | EC50 (HCMV (strain AD169) [2]): 18 µM |
| C[C@@H](C1CCCCC1)N(CC(=O)Nc1ccc(-c2csc(N)n2)cc1)C(=O)OC(C)(C)C [Example 108] |  | 0.46 |  |  |
| CC(c1ccccc1)N(CC(=O)Nc1ccc(-c2csc(N)n2)cc1)C(=O)c1ccncc1 (stereo not shown) [Example 137] |  | 0.98 |  | EC50 (HCMV (strain AD169) [2]): 49 µM |
| Cc1cccc(C)c1OCC(=O)N(CC(=O)Nc1ccc(-c2csc(N)n2)cc1)Cc1ccccc1 [Example 121] |  | 0.49 |  | EC50 (HCMV (strain AD169) [2]): > 31 µM |
| CC(C)(C)OC(=O)N(CC(=O)Nc1ccc(-c2csc(N)n2)cc1)CC1CCCCC1 [Example 100] | 14 | 0.76 |  |  |
| Nc1nc(-c2ccc(NC(=O)CN(CC3CCCCC3)C(=O)c3ccncc3)cc2)cs1 [Example 57] | 2.6 | 3.9 | 15.8 |  |
| Nc1nc(-c2ccc(NC(=O)CN(CCc3ccccc3)C(=O)C3CCCCC3)cc2)cs1 [Example 68] | > 5 | 0.18 |  |  |
| Cc1ccccc1CN(CC(=O)Nc1ccc(-c2csc(N)n2)cc1)C(=O)c1ccncc1 [Example 102] | 11 | 0.19 | 18 |  |
| Nc1nc(-c2ccc(NC(=O)CN(CC3CCCCC3)C(=O)CC3CCCC3)cc2)cs1 [Example 75] | 48 | 0.21 |  |  |
| Nc1nc(-c2ccc(NC(=O)CN(Cc3ccc(F)cc3)C(=O)C3CCCCC3)cc2)cs1 [Example 83] | 8.1 | 0.042 |  |  |
| [N-]=[N+]=Nc1ccc(C(=O)N(CC(=O)Nc2ccc(-c3csc(N)n3)cc2)Cc2ccncc2)cc1 [Example 78] |  | 1 |  |  |
| Nc1nc(-c2ccc(NC(=O)CN(Cc3ccccc3)C(=O)Cc3ccncc3)cc2)cs1 [Example 114] |  | 0.8 | 23 |  |
| Nc1nc(-c2ccc(NC(=O)CN(Cc3ccccc3F)C(=O)c3ccncc3)cc2)cs1 [Example 118] |  | 0.047 | 60 |  |
